From patent US11400063B2, “Early administration of low-dose colchicine after myocardial infarction” (INSTITUT DE CARDIOLOGIE DE MONTREAL, priority 2019, dated 2022)
Where two headings read alike, the source gives them in different places.

Key:
[1] = COLCOT biomarkers of inflammation; format: in vivo, human; settings: baseline to 12 months
From the text: (§1) Additional prespecified exploratory end points included the change from baseline to 6 months in the high-sensitivity C-reactive protein level and the change from baseline to 12 months in the white-cell count. The C-reactive protein biomarker substudy was implemented after a protocol amendment and was optional for sites and for patients; 34 sites chose to participate in this substudy.
(§2) The analysis of the primary end point was repeated in the per-protocol population (i.e., patients without major protocol deviations). Secondary and exploratory end points expressed as time to event were analyzed similarly. The changes from baseline to follow-up were analyzed with the use of an analysis of covariance model with adjustment for baseline value, and estimates of treatment effect are presented with 95% confidence intervals.
(§3) High-sensitivity C-reactive protein was measured in a subgroup of only 207 patients at the time of randomization and 6 months later, and the median concentration at trial entry was 4.28 mg per liter. […] The adjusted geometric mean percent changes in the high-sensitivity C-reactive protein level at 6 months after myocardial infarction were −70.0% in the colchicine group and −66.6% in the placebo group, and the placebo-adjusted geometric mean percent change was −10.1% percentage points in the colchicine group (95% CI, −28.6 to 13.4) (Table 17).
(§4) In Table 17, the placebo-adjusted geometric mean percent change was obtained by exponentiating the adjusted mean difference between groups from the analysis of covariance model (based on log-transformed data), then subtracting 1 and multiplying by 100.
(§5) In addition, the C-reactive protein biomarker sub-study was implemented following a protocol amendment and was optional for sites and for patients; 34 sites accepted to participate in this substudy. There were 213 and 208 patients who provided blood samples at baseline and 6 months, respectively. Paired baseline and 6-month hs-CRP values were available in 207 patients. Clinically available white blood cell counts were obtained from 2598 patients at baseline and 1998 patients at 12 months, and paired baseline and 12-month values were available in 1972 patients. Statistical analysis was conducted on the patients who provided both baseline and follow-up data and as these were exploratory analyses, no missing data was imputed.

[2] = tested on: high-sensitivity C-reactive protein level and white-cell count; experiment: COLCOT biomarkers of inflammation; format: in vivo, human; settings: for Hs-C reactive protein, geometric mean: N = 99; for Total white blood cell count, geometric mean: N = 992
From the text: as §1, §2, §3, §4, §5

[3] = tested on: patients with stable coronary disease; settings: cited from earlier work
[4] = tested on: patients with acute coronary syndromes (ACS); settings: COPS, cited from earlier work
patients with stable CAD = settings: cited from earlier work
[5] = baseline to 12 months, listed as colchicine
[6] = LoDoCo, colchicine vs control (no colchicine)

For `COc1cc2c(c(OC)c1OC)-c1ccc(OC)c(=O)cc1[C@@H](NC(C)=O)CC2` [Colchicine, colchicine], the “Circulating lymphocytes, Adjusted GM percent change” value [1] was 1.80%, the “Hs-C reactive protein, geometric mean” value ([2]; 6 months) was 1.37 mg/L and the “Circulating lymphocytes, geometric mean” value ([2]; 12 months) was 1.83 10^3/μL. For the same compound, the “Circulating neutrophils, geometric mean” value ([2]; 12 months) was 3.95 10^3/μL, the “Total white blood cell count, geometric mean” value ([2]; 12 months) was 6.95 10^3/μL and the “Circulating lymphocytes, geometric mean” value ([2]; Randomization) was 1.79 10^3/μL. The “Circulating neutrophils, geometric mean” value ([2]; Randomization) was 5.45 10^3/μL, the “Hs-C reactive protein, geometric mean” value ([2]; Randomization) was 4.27 mg/L and the “Total white blood cell count, geometric mean” value ([2]; Randomization) was 8.54 10^3/μL. For the same compound, the “Hs-C reactive protein, Adjusted GM percent change” value ([2]; baseline to 6 months) was −70.0%, the “Hs-C reactive protein, Placebo-adjusted GM percent change” value ([2]; baseline to 6 months) was −10.1% and the “Circulating lymphocytes, Placebo-adjusted GM percent change” value ([2]; baseline to 12 months) was 1.10%. The “Circulating neutrophils, Adjusted GM percent change” value ([2]; baseline to 12 months) was −27.63%, the “Circulating neutrophils, Placebo-adjusted GM percent change” value ([2]; baseline to 12 months) was 0.45% and the “Total white blood cell count, Adjusted GM percent change” value ([2]; baseline to 12 months) was −18.81%. The “Total white blood cell count, Placebo-adjusted GM percent change” value ([2]; baseline to 12 months) was 0.26%, the “Total white blood cell count, Adjusted GM percent change” value [2, 5] was −18.8% and the “Total white blood cell count, Placebo-adjusted GM percent change” value [2, 5] was 0.3%. The “reduction in the C-reactive protein level” value ([2]; over the first 6 months after myocardial infarction, both trial groups) was greater than 65%, the “Myocardial infarction, Events N” value ([3]; LoDoCo, N = 250, median follow-up 24 months) was 4 N and the “Ischemic stroke, HR (95% CI)” value [3, 6] was 0.23 (0.03-2.03). For the same compound, the “Myocardial infarction, HR (95% CI)” value [3, 6] was 0.25 (0.08-0.76), the “Ischemic stroke, Events %” value ([3]; LoDoCo) was 0.4% and the “Ischemic stroke, Events N” value ([3]; LoDoCo) was 1 N. The “Myocardial infarction, Events %” value ([3]; LoDoCo) was 1.6%, the “cardiovascular events vs those not receiving colchicine” value ([3]; colchicine 0.5 mg once daily, 532 patients, not placebo-controlled) was “fewer cardiovascular events” and the “Primary composite outcome (cardiovascular mortality, myocardial infarction, ischemic stroke, urgent revascularization), Events N” value ([4]; N = 396, median follow-up 12 months) was 19 N. For the same compound, the “Cardiovascular mortality, HR (95% CI)” value ([4]; colchicine vs placebo) was 3.09 (0.32-29.71), the “Ischemic stroke, HR (95% CI)” value ([4]; colchicine vs placebo) was 0.34 (0.07-1.70) and the “Myocardial infarction, HR (95% CI)” value ([4]; colchicine vs placebo) was 0.52 (0.25-1.07). The “Primary composite outcome, HR (95% CI)” value ([4]; colchicine vs placebo) was 0.47 (0.27-0.82), the “Urgent coronary revascularization, HR (95% CI)” value ([4]; colchicine vs placebo) was 0.26 (0.07-0.92) and the “all-cause mortality, HR” value ([4]; colchicine vs placebo) was 8.20. For the same compound, the “Cardiovascular mortality, Events %” value [4] was 0.8%, the “Cardiovascular mortality, Events N” value [4] was 3 N and the “Ischemic stroke, Events %” value [4] was 0.5%. The “Ischemic stroke, Events N” value [4] was 2 N, the “Myocardial infarction, Events %” value [4] was 3.7% and the “Myocardial infarction, Events N” value [4] was 11 N. The “Primary composite outcome, Events %” value [4] was 4.8%, the “Urgent coronary revascularization, Events %” value [4] was 0.8% and the “Urgent coronary revascularization, Events N” value [4] was 3 N. The “Primary composite outcome (cardiovascular mortality, myocardial infarction, ischemic stroke, urgent revascularization), Events N” value (patients with stable CAD; LoDoCo2, N = 2762, median follow-up 28.6 months) was 187 N, the “Cardiovascular mortality, HR (95% CI)” value (patients with stable CAD; LoDoCo2, colchicine vs placebo) was 0.80 (0.44-1.44) and the “Ischemic stroke, HR (95% CI)” value (patients with stable CAD; LoDoCo2, colchicine vs placebo) was 0.66 (0.35-1.25). For the same compound, the “Myocardial infarction, HR (95% CI)” value (patients with stable CAD; LoDoCo2, colchicine vs placebo) was 0.70 (0.53-0.93), the “Primary composite outcome, HR (95% CI)” value (patients with stable CAD; LoDoCo2, colchicine vs placebo) was 0.69 (0.57-0.83) and the “Urgent coronary revascularization, HR (95% CI)” value (patients with stable CAD; LoDoCo2, colchicine vs placebo) was 0.75 (0.60-0.94). For the same compound, the “all-cause mortality, HR” value (patients with stable CAD; LoDoCo2, colchicine vs placebo) was 1.21, the “Myocardial infarction, HR (95% CI)” value (patients with stable CAD; LoDoCo2, colchicine vs placebo, listed as colchicine) was 0.70 and the “Cardiovascular mortality, Events %” value (patients with stable CAD; LoDoCo2) was 0.7%. The “Cardiovascular mortality, Events N” value (patients with stable CAD; LoDoCo2) was 20 N, the “Ischemic stroke, Events %” value (patients with stable CAD; LoDoCo2) was 0.6% and the “Ischemic stroke, Events N” value (patients with stable CAD; LoDoCo2) was 16 N. The “Myocardial infarction, Events %” value (patients with stable CAD; LoDoCo2) was 3.0%, the “Myocardial infarction, Events N” value (patients with stable CAD; LoDoCo2) was 83 N and the “Primary composite outcome, Events %” value (patients with stable CAD; LoDoCo2) was “(6.8%)”. The “Urgent coronary revascularization, Events %” value (patients with stable CAD; LoDoCo2) was “(4.9%)” and the “Urgent coronary revascularization, Events N” value (patients with stable CAD; LoDoCo2) was 135 N.
